Assay: particle size measured using a MALVERN MASTERSIZER particle size analyzer
Format: physicochemical
Settings: starting progesterone particles before milling
Protocol: Samples of each of the first, second, and third pass wet-milled progesterone compositions prepared under the various milling conditions are collected and the particle size (μm) is measured using a MALVERN MASTERSIZER particle size analyzer (Malvern Instruments, Westborough Mass.). Saturated, filtered, progesterone in sunflower oil is used as the diluent. “Initial” refers to unmilled progesterone suspension. “% Beads” refers to the volume of milling chamber filled with milling media (beads). “Input” refers to the pump setting. “Output” refers to the product (gm/min) received from the mill.

For `CC(=O)[C@H]1CC[C@H]2[C@@H]3CCC4=CC(=O)CC[C@]4(C)[C@H]3CC[C@]12C` [unmicronized progesterone, pregn-4-ene-3,20-dione], the D90 was 220 μm.
